The term IC50 denotes the midpoint of a concentration-inhibition curve. Low readings indicate greater potency in that assay, high ones weaker potency in that assay.

For one series, the target named is AhR (Homo sapiens (Human), UniProt P35869). Description: AhR antagonism in U937 cells (Promega P450-Glo assay). In kind it is cell-based. Conditions: inhibition of agonist (KYNA) response, CYP1A1 activity readout (Luciferin-CEE), 24 hrs, arithmetic mean of pIC50. On the procedure:
Examples were tested in selected biological assays two or more times. Data are reported as the arithmetic mean of the pIC50 (−log10IC50) values, where IC50 is defined as the concentration of compound producing a 50% inhibition of the agonist (KYNA) response.
In Vitro Assay 1: AhR Antagonism in U937 Cells (Promega P450-Glo™ Assay)
AhR antagonism was assessed in U937 cells (myeloid lineage cell line derived from a human histiocytic lymphoma).). Ligand binds the AhR in the cytoplasm, and the AhR-ligand complex translocates to the nucleus and forms a heterodimer with AhR nuclear translocator (Arnt). This complex binds the xenobiotic response element (XRE) in the 5′ upstream region of the CYP1A1 promoter, enhancing CYP1A1 expression. CYP1A1 activity is subsequently determined by assessing the conversion of Luciferin-CEE to luciferin, which in turn reacts with luciferase to produce light. The amount of light produced is directly proportional to cytochrome P450 activity. U937 cells in Ultraculture serum free media (Lonza) were plated at 100,000 cells per well in a round bottom 96 well tissue culture plate. Seven concentrations of test compound (final [DMSO] 1%) were added and incubated for 10 minutes before the addition of […] KYNA. The plates were then placed in an incubator at 37° C., >85% humidity, 5% CO2 for 24 hrs. After aspiration of the supernatant the CYP1A1 substrate Luciferin-CEE ([Final] 83 μM) was added and incubated for 3 hrs before the reaction was stopped by adding luciferin detection reagent and luminescence was read after 20 minutes.

In a further series the target is CYP1A1 (Homo sapiens (Human), UniProt P04798). Kind of series: CYP1A1 inhibition assay (Promega P450-Glo, Cypex bactosomes). In kind it is biochemical. The note with it: direct CYP1A1 inhibition, Luciferin-CEE 30 μM, NADPH, 37° C., arithmetic mean of pIC50. On the procedure: In Vitro Assay 22: […] Inhibition Assay
The direct CYP1A1 inhibitory activity of test compounds was also assessed using the Promega P450-Glo™ assay system. Seven concentrations of test compound were added to a ½ area white 96 well plate. Cypex […]. bactosomes ([final] 0.5 pmol) and CYPA substrate Luciferin-CEE ([final] 30 μM) were prepared in 0.1M potassium phosphate buffer and incubated with test compounds at 37° C. for 5 minutes. 0.2m NADPH was then added to the plates and incubated at 37° C., for 10 minutes. The reaction was stopped by adding luciferin detection reagent and luminescence was read after 20 minutes.

AhR, sequence (P35869 11-848): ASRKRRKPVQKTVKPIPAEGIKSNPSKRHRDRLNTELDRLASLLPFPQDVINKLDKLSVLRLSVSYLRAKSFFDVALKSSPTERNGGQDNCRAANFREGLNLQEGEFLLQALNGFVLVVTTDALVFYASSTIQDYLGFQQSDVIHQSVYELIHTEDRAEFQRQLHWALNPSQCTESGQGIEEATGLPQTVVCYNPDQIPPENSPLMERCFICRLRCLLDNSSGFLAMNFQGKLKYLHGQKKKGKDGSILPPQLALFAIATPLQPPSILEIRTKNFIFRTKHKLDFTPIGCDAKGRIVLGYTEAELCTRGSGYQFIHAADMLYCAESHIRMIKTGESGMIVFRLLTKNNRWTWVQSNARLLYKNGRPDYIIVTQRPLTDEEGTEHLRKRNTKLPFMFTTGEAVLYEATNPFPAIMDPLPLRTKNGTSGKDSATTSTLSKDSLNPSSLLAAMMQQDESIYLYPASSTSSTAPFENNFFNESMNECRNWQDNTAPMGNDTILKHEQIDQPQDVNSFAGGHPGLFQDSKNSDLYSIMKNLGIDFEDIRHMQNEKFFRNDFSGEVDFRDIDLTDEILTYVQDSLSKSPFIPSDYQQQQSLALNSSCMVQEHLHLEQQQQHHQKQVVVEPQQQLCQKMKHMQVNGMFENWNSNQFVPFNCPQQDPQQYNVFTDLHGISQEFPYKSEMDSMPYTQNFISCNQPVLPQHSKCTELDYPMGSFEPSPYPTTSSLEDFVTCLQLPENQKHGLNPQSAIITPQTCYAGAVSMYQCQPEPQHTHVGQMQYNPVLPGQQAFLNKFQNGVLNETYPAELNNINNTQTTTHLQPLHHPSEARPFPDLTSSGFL
CYP1A1, sequence (P04798 whole entry): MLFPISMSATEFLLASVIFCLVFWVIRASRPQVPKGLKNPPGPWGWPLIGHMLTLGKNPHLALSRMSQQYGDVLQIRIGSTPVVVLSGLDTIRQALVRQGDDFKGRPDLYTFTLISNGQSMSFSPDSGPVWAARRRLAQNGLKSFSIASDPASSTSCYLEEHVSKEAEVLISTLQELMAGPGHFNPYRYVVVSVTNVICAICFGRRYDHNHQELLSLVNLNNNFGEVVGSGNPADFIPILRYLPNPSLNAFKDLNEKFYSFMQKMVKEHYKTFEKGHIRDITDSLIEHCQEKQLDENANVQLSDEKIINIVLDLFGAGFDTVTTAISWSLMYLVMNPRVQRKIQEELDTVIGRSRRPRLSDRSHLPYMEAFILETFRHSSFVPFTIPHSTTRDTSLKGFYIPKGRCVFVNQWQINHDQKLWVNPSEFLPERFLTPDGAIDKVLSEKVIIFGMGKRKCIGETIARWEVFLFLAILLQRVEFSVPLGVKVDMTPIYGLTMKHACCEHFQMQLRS

For `CC(=O)N1CCc2c(nc(-c3cncc(F)c3)nc2NCCc2c[nH]c3ccccc23)C1` [Example 1, 1-(4-((2-(1H-indol-3-yl)ethyl)amino)-2-(5-fluoropyridin-3-yl)-5,8-dihydropyrido [3,4-d]pyrimidin-7(6H)-yl)ethan-1-one], the half-inhibitory concentration (IC50) at AhR is 1.58 nM. Moreover, the “cyp1A1 pIC50” value at CYP1A1 turned out to be 6.00.

The molecule `CS(=O)(=O)N1CCc2c(nc(-c3cncc(F)c3)nc2NCCc2c[nH]c3ccccc23)C1` [Example 2, N-(2-(1H-indol-3-yl)ethyl)-2-(5-fluoropyridin-3-yl)-7-(methylsulfonyl)-5,6,7,8-tetrahydropyrido [3,4-d]pyrimidin-4-amine] showed an IC50 on AhR of 1.26 nM. Further, the “cyp1A1 pIC50” value at CYP1A1 is 6.20.

Regarding `N#CCN1CCc2c(nc(-c3cncc(F)c3)nc2NCCc2c[nH]c3ccccc23)C1` [Example 4, 2-(4-((2-(1H-indol-3-yl)ethyl)amino)-2-(5-fluoropyridin-3-yl)-5,8-dihydropyrido[3,4-d]pyrimidin-7(6H)-yl)acetonitrile], the IC50 on AhR is 6.31 nM; on CYP1A1 it was 794 nM.

In the case of `CC(C)N1CCc2c(nc(-c3cncc(F)c3)nc2NCCc2c[nH]c3ccccc23)C1` [Example 5, N-(2-(1H-indol-3-yl)ethyl)-2-(5-fluoropyridin-3-yl)-7-isopropyl-5,6,7,8-tetrahydropyrido[3,4-d]pyrimidin-4-amine], the IC50 at AhR is 10 nM. Besides, the “cyp1A1 pIC50” value at CYP1A1 was 6.40.

On AhR, `CN1CCc2c(nc(-c3cncc(F)c3)nc2NCCc2c[nH]c3ccccc23)C1` [Example 6, N-(2-(1H-indol-3-yl)ethyl)-2-(5-fluoropyridin-3-yl)-7-methyl-5,6,7,8-tetrahydropyrido[3,4-d]pyrimidin-4-amine] had an IC50 of 5.01 nM. Also, the “cyp1A1 pIC50” value on CYP1A1 is 6.50.

The molecule `c1cncc(-c2nc3c(c(NCCc4c[nH]c5ccccc45)n2)CNCC3)c1` [Example 7, N-(2-(1H-indol-3-yl)ethyl)-2-(pyridin-3-yl)-5,6,7,8-tetrahydropyrido [4,3-d]pyrimidin-4-amine] gave an IC50 at AhR of 10 nM. Further, the “cyp1A1 pIC50” value on CYP1A1 is 6.70.

Turning to `Fc1cncc(-c2nc3c(c(NCCc4c[nH]c5ccccc45)n2)CCNC3)c1` [Example 8, N-(2-(1H-indol-3-yl)ethyl)-2-(5-fluoropyridin-3-yl)-5,6,7,8-tetrahydropyrido[3,4-d]pyrimidin-4-amine], the IC50 at AhR is 15.8 nM. The “cyp1A1 pIC50” value on CYP1A1 worked out at 7.00.

Take `c1cncc(-c2nc3c(c(NCCc4c[nH]c5ccccc45)n2)CCNC3)c1` [Example 9, N-(2-(1H-indol-3-yl)ethyl)-2-(pyridin-3-yl)-5,6,7,8-tetrahydro pyrido[3,4-d]pyrimidin-4-amine]: the IC50 at AhR is 20 nM. Moreover, the “cyp1A1 pIC50” value on CYP1A1 came to 6.60.

On AhR, `c1cncc(-c2nc3c(c(NCCc4c[nH]c5ccccc45)n2)CNC3)c1` [Example 10, N-(2-(1H-indol-3-yl)ethyl)-2-(pyridin-3-yl)-6,7-dihydro-5H-pyrrolo[3,4-d]pyrimidin-4-amine] had an IC50 of 12.6 nM. Also, the “cyp1A1 pIC50” value on CYP1A1 stood at 6.80.

Molecule `Fc1cncc(-c2nc3c(c(OCCc4c[nH]c5ccccc45)n2)CCNC3)c1` [Example 11, 4-(2-(1H-indol-3-yl)ethoxy)-2-(5-fluoropyridin-3-yl)-5,6,7,8-tetrahydropyrido[3,4-d]pyrimidine] showed an IC50 at AhR of 3.16 nM. Further, at CYP1A1, the “cyp1A1 pIC50” value is reported as 6.40.

The molecule `CN(C)S(=O)(=O)N1CCc2c(nc(-c3cncc(F)c3)nc2NCCc2c[nH]c3ccccc23)C1` [Example 12, 4-((2-(1H-indol-3-yl)ethyl)amino)-2-(5-fluoropyridin-3-yl)-N,N-dimethyl-5,8-dihydropyrido[3,4-d]pyrimidine-7(6H)-sulfonamide] had a half-maximal inhibitory concentration (IC50) on AhR of 1 nM. Further, the “cyp1A1 pIC50” value on CYP1A1 is on record as 6.10.

Take `CN(C)C(=O)N1CCc2c(nc(-c3cncc(F)c3)nc2NCCc2c[nH]c3ccccc23)C1` [Example 13, 4-((2-(1H-indol-3-yl)ethyl)amino)-2-(5-fluoropyridin-3-yl)-N,N-dimethyl-5,8-dihydropyrido[3,4-d]pyrimidine-7(6H)-carboxamide]: at AhR, the IC50 was 3.16 nM. Moreover, at CYP1A1, the “cyp1A1 pIC50” value worked out at 5.70.

On AhR, `CNC(=O)N1CCc2c(nc(-c3cncc(F)c3)nc2NCCc2c[nH]c3ccccc23)C1` [Example 14, 4-((2-(1H-indol-3-yl)ethyl)amino)-2-(5-fluoropyridin-3-yl)-N-methyl-5,8-dihydropyrido[3,4-d]pyrimidine-7(6H)-carboxamide] had an IC50 of 1.26 nM. Also, the “cyp1A1 pIC50” value at CYP1A1 was determined as 6.10.

Turning to `Cn1nccc1C(=O)N1CCc2c(nc(-c3cncc(F)c3)nc2NCCc2c[nH]c3ccccc23)C1` [Example 15, (4-((2-(1H-indol-3-yl)ethyl)amino)-2-(5-fluoropyridin-3-yl)-5,8-dihydropyrido[3,4-d]pyrimidin-7(6H)-yl)(1-methyl-1H-pyrazol-5-yl)methanone], on AhR, the IC50 is 2 nM. Also, at CYP1A1, the “cyp1A1 pIC50” value amounted to 6.00.

Take `NCC(=O)N1CCc2c(nc(-c3cncc(F)c3)nc2NCCc2c[nH]c3ccccc23)C1` [Example 16, 1-(4-((2-(1H-indol-3-yl)ethyl)amino)-2-(5-fluoropyridin-3-yl)-5,8-dihydropyrido[3,4-d]pyrimidin-7(6H)-yl)-2-aminoethan-1-one]: the figures for the IC50 at AhR and against CYP1A1 were 6.31 nM and 100 nM, respectively.

In the case of `Fc1cncc(-c2nc3c(c(NCCc4c[nH]c5ccccc45)n2)CCNCC3)c1` [Example 17a, N-(2-(1H-indol-3-yl)ethyl)-2-(5-fluoropyridin-3-yl)-6,7,8,9-tetrahydro-5H-pyrimido[4,5-d]azepin-4-amine], on AhR, the IC50 is 25.1 nM. Besides, at CYP1A1, the “cyp1A1 pIC50” value is given as 6.20.

Molecule `CCN1CCc2nc(-c3cncc(F)c3)nc(NCCc3c[nH]c4ccccc34)c2CC1` [Example 17b, N-(2-(1H-indol-3-yl)ethyl)-7-ethyl-2-(5-fluoropyridin-3-yl)-6,7,8,9-tetrahydro-5H-pyrimido[4,5-d]azepin-4-amine] had a 50% inhibitory concentration (IC50) at AhR of 15.8 nM. The “cyp1A1 pIC50” value at CYP1A1 was found to be 6.10.

Regarding `CC1(C)c2nc(-c3cncc(F)c3)nc(NCCc3c[nH]c4ccccc34)c2CCN1Cc1ccccc1` [Example 18a, N-(2-(1H-indol-3-yl)ethyl)-7-benzyl-2-(5-fluoropyridin-3-yl)-8,8-dimethyl-5,6,7,8-tetrahydropyrido[3,4-d]pyrimidin-4-amine], on AhR, the 50% inhibitory concentration (IC50) is 5.01 nM. Also, at CYP1A1, the “cyp1A1 pIC50” value is 6.20.

Molecule `CC1(C)NCCc2c(NCCc3c[nH]c4ccccc34)nc(-c3cncc(F)c3)nc21` [Example 18b, N-(2-(1H-indol-3-yl)ethyl)-2-(5-fluoropyridin-3-yl)-8,8-dimethyl-5,6,7,8-tetrahydropyrido[3,4-d]pyrimidin-4-amine] showed an IC50 at AhR of 20 nM. Further, the “cyp1A1 pIC50” value on CYP1A1 came to 5.90.

On AhR, `Fc1cncc(-c2nc3c(c(NCCc4nc5ccccc5[nH]4)n2)CCNC3)c1` [Example 19, N-(2-(1H-benzo[d]imidazol-2-yl)ethyl)-2-(5-fluoropyridin-3-yl)-5,6,7,8-tetrahydropyrido[3,4-d]pyrimidin-4-amine] gave an IC50 of 3160 nM. For the same molecule, the “cyp1A1 pIC50” value on CYP1A1 came out at 5.10.

As to `Cc1cncc(-c2nc3c(c(NCCc4c[nH]c5ccccc45)n2)CCNC3)c1` [Example 20, N-(2-(1H-indol-3-yl)ethyl)-2-(5-methylpyridin-3-yl)-5,6,7,8-tetrahydropyrido[3,4-d]pyrimidin-4-amine], the IC50 at AhR was 25.1 nM. Besides, the “cyp1A1 pIC50” value at CYP1A1 is 6.40.

On to `Fc1cncc(-c2nc3c(c(NCCc4c[nH]c5ccccc45)n2)CNCC3)c1` [Example 21, N-(2-(1H-indol-3-yl)ethyl)-2-(5-fluoropyridin-3-yl)-5,6,7,8-tetrahydropyrido[4,3-d]pyrimidin-4-amine], for which the IC50 on AhR is 20 nM. At CYP1A1, the “cyp1A1 pIC50” value came out at 6.40.

`Clc1cncc(-c2nc3c(c(NCCc4c[nH]c5ccccc45)n2)CCNC3)c1` [Example 22, N-(2-(1H-indol-3-yl)ethyl)-2-(5-chloropyridin-3-yl)-5,6,7,8-tetrahydropyrido[3,4-d]pyrimidin-4-amine]: the IC50 is 10 nM on AhR and 316 nM against CYP1A1.

On AhR, `N#Cc1cncc(-c2nc3c(c(NCCc4c[nH]c5ccccc45)n2)CCNC3)c1` [Example 23, 5-(4-((2-(1H-indol-3-yl)ethyl)amino)-5,6,7,8-tetrahydropyrido[3,4-d]pyrimidin-2-yl)nicotinonitrile] had an IC50 of 10 nM. Besides, the “cyp1A1 pIC50” value on CYP1A1 turned out to be 6.70.
